Laboratory results as given in patent US20250382268A1, “METHODS AND COMPOSITIONS FOR SELECTIVELY INHIBITING PATHOGENIC MICROBES” (priority 2019, published 2025).
In brackets after ≈: the same amount, converted by molar mass. Like-named read-outs stand apart in the source and are kept apart here.

Key:
[1] = test system: Burkholderia thailandensis; assay: microbe, parasite or virus in culture; assay type: cell-based
Burkholderia cenocepacia = assay: microbe, parasite or virus in culture; assay type: cell-based
HepG2 cells = assay: Cytotoxicity MTT assay in HepG2 cells; assay type: cell-based; settings: Homo sapiens
Procedure: Additionally, the antimicrobial compounds were analyzed for cytotoxicity. […] We utilized the standard MTT assay (Promega CellTiter 96) and GraphPad Prism 7 software to determine EC50 values for each analogue. Briefly, 20,000 HepG2 cells in 200 μl of the ATCC recommended media were seeded in each well of a 96-well plate with a moisture barrier created in the outermost wells. The cells were allowed to attach overnight at 37° C., and then observed under phase contrast microscopy for proper morphological characteristics. […] Once incubations were complete, the spectrophotometric absorbance of the samples was measured at a wavelength of 595 nm. […] For the HepaRG assay, NoSpin HepaRG™ cells (Lonza, cat #NSHPRG) were thawed and plated with 20,000 cells per well. They were allowed to attach for 4 h (optimal DME profile per Lonza's testing) before dosing following the identical protocol as above.

N. gonorrhoeae = assay: microbe, parasite or virus in culture; assay type: cell-based; settings: Neisseria gonorrhoeae
Francisella tularensis = assay: microbe, parasite or virus in culture; assay type: cell-based; settings: read-out: Francisella tularensis NR-577 MIC, strain NR-577
Staphylococcus aureus = assay: microbe, parasite or virus in culture
[2] = Toxicity study in mice, body weight over 7 days; assay type: in vivo; settings: 6-week-old Balb/c mice
Text: The vehicle is 40% PEG300 solution in 0.9% NaCl. […] Thus, the compounds are useful for in vivo antimicrobial administration.

[3] = MRSA, read-out: Staphylococcus aureus MIC, MRSA strain HM-467
[4] = MRSA, read-out: Staphylococcus aureus MIC, MRSA strain NK-41886
[5] = MRSA, read-out: Staphylococcus aureus MIC, MRSA strain NR-13533
[6] = MRSA, read-out: Staphylococcus aureus MIC, MRSA strain NR-28983
[7] = MRSA, read-out: Staphylococcus aureus MIC, MRSA strain NR-41875
[8] = MRSA, read-out: Staphylococcus aureus MIC, MRSA strain NR-41876
[9] = MRSA, read-out: Staphylococcus aureus MIC, MRSA strain NR-41877
[10] = MRSA, read-out: Staphylococcus aureus MIC, MRSA strain NR-41878
[11] = read-out: Staphylococcus aureus MIC, VSSA NR-49121

| Compound | EC50 (HepG2 cells) [µg/mL] | MIC (Staphylococcus aureus; [3]) [µg/mL] | MIC (Staphylococcus aureus; [4]) [µg/mL] | MIC (Staphylococcus aureus; [5]) [µg/mL] | MIC (Staphylococcus aureus; [6]) [µg/mL] | MIC (Staphylococcus aureus; [7]) [µg/mL] | MIC (Staphylococcus aureus; [8]) [µg/mL] | MIC (Staphylococcus aureus; [9]) [µg/mL] | MIC (Staphylococcus aureus; [10]) [µg/mL] | MIC (Staphylococcus aureus; [11]) [µg/mL] | other results |
| --- | --- | --- | --- | --- | --- | --- | --- | --- | --- | --- | --- |
| Oc1ccc(Sc2c[nH]c3ccccc23)cc1 [Compound 156I, 4-((1H-indol-3-yl)thio)phenol] | 12.1 (≈ 50.1 µM) |  |  |  |  |  |  |  |  |  | MBC [1]: 100 µg/mL (≈ 414 µM); MIC [1]: 50 µg/mL (≈ 207 µM); MBC (Burkholderia cenocepacia): 150 µg/mL (≈ 622 µM); MIC (Burkholderia cenocepacia): 50 µg/mL (≈ 207 µM) |
| Brc1ccc(Sc2c[nH]c3ccccc23)cc1 [Compound 156K, 3-((4-bromophenyl)thio)-1H-indole] | 27.6 (≈ 90.7 µM) |  |  |  |  |  |  |  |  |  |  |
| Brc1ccc(Oc2c[nH]c3ccccc23)cc1 [Compound 156KC, 3-(4-bromophenoxy)-1H-indole] |  |  |  |  |  |  |  |  |  |  | MIC (N. gonorrhoeae; read-out: Neisseria gonorrhoeae WHO 901 MIC, strain WHO 901): 8 µg/mL (≈ 27.8 µM); MIC (N. gonorrhoeae; read-out: Neisseria gonorrhoeae WHO 914 MIC, strain WHO 914): 8 µg/mL (≈ 27.8 µM); MIC (Francisella tularensis): 2 µg/mL (≈ 6.94 µM) |
| Brc1ccc(Sc2c[nH]c3ccc(Br)cc23)cc1 [Compound 172D, 5-bromo-3-((4-bromophenyl)thio)-1H-indole] |  | 12.5 (≈ 32.6 µM) | 1.56 (≈ 4.07 µM) | 1.56 (≈ 4.07 µM) | 1.56 (≈ 4.07 µM) | 3.13 (≈ 8.17 µM) | 1.56 (≈ 4.07 µM) | 3.13 (≈ 8.17 µM) | 1.56 (≈ 4.07 µM) | 1.56 (≈ 4.07 µM) |  |
| COc1ccc2[nH]cc(Sc3ccc(Br)cc3)c2c1 [Compound 172E, 3-((4-bromophenyl)thio)-5-methoxy-1H-indole] | 23.3 (≈ 69.7 µM) |  |  |  |  |  |  |  |  |  |  |
| Oc1ccccc1Sc1c[nH]c2ccc(Br)cc12 [Compound 174AI, 2-((5-bromo-1H-indol-3-yl)thio)phenol] | 27.4 (≈ 85.6 µM) | 16 (≈ 50 µM) | 8 (≈ 25 µM) | 8 (≈ 25 µM) | 8 (≈ 25 µM) | 8 (≈ 25 µM) | 8 (≈ 25 µM) | 8 (≈ 25 µM) | 8 (≈ 25 µM) | 8 (≈ 25 µM) | toxicity by body weight [2]: did not have significant toxicity |
| Brc1ccc2[nH]cc(Sc3c[nH]c4ccccc34)c2c1 [Compound 174AL, 3-((1H-indol-3-yl)thio)-5-bromo-1H-indole] | 26.1 (≈ 76 µM) |  |  |  |  |  |  |  |  |  |  |
| OCc1ccccc1Sc1c[nH]c2ccc(Br)cc12 [Compound 174AT, (2-((5-bromo-1H-indol-3-yl)thio)phenyl)methanol] |  | 32 (≈ 95.7 µM) | 16 (≈ 47.9 µM) | 16 (≈ 47.9 µM) | 16 (≈ 47.9 µM) | 16 (≈ 47.9 µM) | 16 (≈ 47.9 µM) | 16 (≈ 47.9 µM) | 16 (≈ 47.9 µM) | 16 (≈ 47.9 µM) |  |
| Fc1ccccc1Sc1c[nH]c2ccc(Br)cc12 [Compound 174AU, 5-bromo-3-((2-fluorophenyl)thio)-1H-indole] |  | 2 (≈ 6.21 µM) | 2 (≈ 6.21 µM) | 2 (≈ 6.21 µM) | 2 (≈ 6.21 µM) | 2 (≈ 6.21 µM) | 2 (≈ 6.21 µM) | 4 (≈ 12.4 µM) | 2 (≈ 6.21 µM) | 4 (≈ 12.4 µM) | toxicity by body weight [2]: did not have significant toxicity |
| FC(F)(F)c1ccccc1Sc1c[nH]c2ccc(Br)cc12 [Compound 174AV, 5-bromo-3-((2-(trifluoromethyl)phenyl)thio)-1H-indole] |  | 2 (≈ 5.37 µM) | 2 (≈ 5.37 µM) | 1 (≈ 2.69 µM) | 1 (≈ 2.69 µM) | 1 (≈ 2.69 µM) | 2 (≈ 5.37 µM) | 2 (≈ 5.37 µM) | 2 (≈ 5.37 µM) | 2 (≈ 5.37 µM) |  |
| FC(F)(F)c1ccc2[nH]cc(Sc3ccccc3Br)c2c1 [Compound 174AX, 3-((2-bromophenyl)thio)-5-(trifluoromethyl)-1H-indole] |  | 2 (≈ 5.37 µM) | 2 (≈ 5.37 µM) | 1 (≈ 2.69 µM) | 2 (≈ 5.37 µM) | 1 (≈ 2.69 µM) | 2 (≈ 5.37 µM) | 2 (≈ 5.37 µM) | 1 (≈ 2.69 µM) | 1 (≈ 2.69 µM) |  |
| Cc1ccccc1Sc1c[nH]c2ccc(Br)cc12 [Compound 174AY, 5-bromo-3-(o-tolylthio)-1H-indole] |  | 4 (≈ 12.6 µM) | 4 (≈ 12.6 µM) | 4 (≈ 12.6 µM) | 4 (≈ 12.6 µM) | 4 (≈ 12.6 µM) | 2 (≈ 6.28 µM) | 2 (≈ 6.28 µM) | 2 (≈ 6.28 µM) | 2 (≈ 6.28 µM) |  |
| Cc1[nH]c2ccc(Br)cc2c1Sc1ccccc1Br [Compound 174AZ, 5-bromo-3-((2-bromophenyl)thio)-2-methyl-1H-indole] | 25.8 (≈ 65 µM) |  |  |  |  | 4 (≈ 10.1 µM) | 2 (≈ 5.04 µM) |  |  | 2 (≈ 5.04 µM) | toxicity by body weight [2]: did not have significant toxicity |
| Clc1ccc2[nH]cc(Sc3ccc(Br)cc3)c2c1 [Compound 174C, 3-((4-bromophenyl)thio)-5-chloro-1H-indole] | 25.4 (≈ 75 µM) |  |  |  |  |  |  |  |  |  |  |
| Brc1ccc(Sc2c[nH]c3cccc(Br)c23)cc1 [Compound 174D, 4-bromo-3-((4-bromophenyl)thio)-1H-indole] | 23.2 (≈ 60.6 µM) |  |  |  |  |  |  |  |  |  |  |
| Fc1ccc2[nH]cc(Sc3ccc(Br)cc3)c2c1 [Compound 174E, 3-((4-bromophenyl)thio)-5-fluoro-1H-indole] | 23.6 (≈ 73.2 µM) |  |  |  |  |  |  |  |  |  |  |
